Experiment [1] has as its target PBP1b from Citrobacter freundii. Nature of the experiment: SPR moenomycin binding to immobilized full-length PBP. As to conditions: steady-state affinity, average values, read-out: SPR_KD.
The target of experiment [2] is PBP2a from Enterococcus faecalis. Described as above. The following applies: steady-state affinity, average values, read-out: SPR_KD.
For experiment [3] the target is unchanged. The experiment in a line: Fluorescence anisotropy direct binding assay. The following applies: FA direct binding, 100 nM F-Moe, 10 mM Tris pH 8.0, 100 mM NaCl; read-out: FA_KD. Here is the method:
Fluorescence anisotropy measurements were carried out in triplicates in the wells of 384-well plates using a laser fluorimetry equipped with a 488 nm laser (IsoCyte, Blueshift Biotech, Inc., Sunnyvale, Calif., USA). Various buffers, salts, pH values, and divalent cations (Ca^++, Mg^++, Co^++) were optimized for fluorescence anisotropy measurements. […] The scanning focus was above the plate bottom to avoid detection interferences. Data analysis was performed with the proprietary software, BlueImage (Blueshift Biotech Inc). Fluorescence anisotropy values (A) were calculated using the equation: A=(/∥−G*/⊥)/(/∥+2G*/⊥), where /∥ is the fluorescence intensity of emitted light parallel to excitation, /⊥ is the fluorescence intensity of emitted light perpendicular to excitation, and G is the […] that corrects for instrument bias. The G factor is experimentally determined for each run using the probe-only well as the basal an isotropy.
For direct binding assay, the initial condition contained 40 μl of 100 nM F-Moe in 10 mM Tris, pH 8.0, 100 mM NaCl. After a small volume of PBP stock was added, the anisotropy change was measured after a 5-minute equilibration. We assume that the direct titration follows a simple binding equilibrium between Ligand (L) and Receptor (R)
[formula] […]
(Polarisation of emitted light reports the rotation of a fluorescent probe.)

For experiment [4], the system named is Escherichia coli. The experiment in a line: Minimal inhibitory concentration (MIC) determination. It counts as cell-based.
The test system of experiment [5] is Klebsiella pneumoniae. The description is as above. It counts as cell-based.
Experiment [6] has as its system Bacillus subtilis. Described as above. It counts as cell-based. Here is the method:
(§1) The minimal inhibitory concentration (MIC) of tested compounds was determined following the NCCLS standard. The experiments were conducted in 96-well microtiter plates using two-fold dilutions in Muller-Hilton broth with (Streptococcus pneumonia) or without blood (Bacillus subtilis, Enterococcus faecalis, Staphylococcus aureus). Exponentially growing cells at 5×10^5 cells/ml were incubated with test compounds at various concentrations.

In experiment [7] the test system is Enterococcus faecalis. The description is as above. It counts as cell-based. Here is the method:
as §1

The subject of another experiment is Staphylococcus aureus. The experiment is described as above. It counts as cell-based. Here is the method: as §1
In another experiment the test system is Streptococcus pneumoniae. The description is as above. Format: cell-based. Here is the method:
as §1

The subject of experiment [8] is Clostridium difficile. The experiment is described as above. It counts as cell-based.
Another experiment relates to Citrobacter freundii. The following applies: literature citation 28; cited from earlier work.
Experiment [9] deals with Escherichia coli. As to conditions: literature citation 28; cited from earlier work.
A further experiment deals with Helicobacter pylori. As to conditions: literature citation 29; cited from earlier work.
Experiment [10] deals with Klebsiella pneumoniae. The following applies: literature citation 28; cited from earlier work.
For the next experiment, the system named is Pseudomonas aeruginosa. As to conditions: literature citation 28; cited from earlier work.
In experiment [11] the test system is Bacillus subtilis. As to conditions: literature citation 30; cited from earlier work.
For experiment [12], the system named is Clostridium difficile. As to conditions: literature citation 30; cited from earlier work.
In experiment [13] the test system is Enterococcus faecalis. The following applies: literature citation 31; cited from earlier work.

Read-outs that look alike come from different tables or passages of the source. Where only a bound is given, the exact number is not on record here.

Moenomycin A [Compound 1]: the Kd in experiment [1] was 728 nM; in experiment [2], 619 nM; in experiment [3] it was 276 ± 14 nM. Also, the MIC (in general, the lowest concentration found to suppress growth) in the experiment with Escherichia coli [4] was 80 µM; in the experiment on Klebsiella pneumoniae [5], 80 µM; in the experiment with Bacillus subtilis [6] (B. subtilis ATCC23857, Muller-Hilton broth, 18 h to 24 h, 37° C., read-out: MIC B. subtilis (ATCC23857)), 0.33 µM; against Bacillus subtilis [6] (Bacillus subtilis (Table 1)), 0.3 to 0.6 µM; in the experiment on Enterococcus faecalis [7] (E. faecalis ATCC29212, Muller-Hilton broth, 18 h to 24 h, 37° C., read-out: MIC E. faecalis (ATCC29212)), 0.04 µM; against Enterococcus faecalis [7] (Enterococcus faecalis (Table 1)), 0.075 to 0.3 µM. Moreover, the MIC is under 0.01 µM in the experiment with Staphylococcus aureus (S. aureus ATCC29213, Muller-Hilton broth, 18 h to 24 h, 37° C., read-out: MIC S. aureus (ATCC29213)); 0.075 µM in the experiment on Staphylococcus aureus (Staphylococcus aureus (Table 1)); 0.33 µM in the experiment on Streptococcus pneumoniae (S. pneumoniae ATCC49619, Muller-Hilton broth with blood, 18 h to 24 h, 37° C., read-out: MIC S. pneumoniae (ATCC49619)); 0.625 µM in the experiment with Streptococcus pneumoniae (Streptococcus pneumoniae (Table 1)); over 160 µM in the experiment with Clostridium difficile [8]. Besides, the “Reported values MIC” value with Citrobacter freundii was 352 µM; in the experiment on Escherichia coli [9], 55 to 110 µM; in the experiment with Helicobacter pylori it was 1.3 µM; with Klebsiella pneumoniae [10] it was 13.75 to 27.5 µM; in the experiment with Pseudomonas aeruginosa it was 55 to 110 µM; in the experiment on Bacillus subtilis [11] it was 0.07 to 0.43 µM. Besides, the “Reported values MIC” value in the experiment on Clostridium difficile [12] is 220 to 440 µM; in the experiment on Enterococcus faecalis [13], 0.1 µM.

The record behind these values is patent publication US8916540B2, “Antibiotic compositions and related screening methods” (Academia Sinica, priority 2008, dated 2014).
